Laboratory results from PMC6268586, “Effect of Wine and Vinegar Processing of Rhizoma Corydalis on the Tissue Distribution of Tetrahydropalmatine, Protopine and Dehydrocorydaline in Rats” (Molecules, 2012).
Read-outs that look alike come from different tables or passages of the source.

Assay: Tissue distribution of THP, DHC and protopine in rat tissues after gastric gavage administration (HPLC-UV, non-compartmental analysis)
Format: in vivo, Wistar male rats
Conditions: male, Wistar, po, 26.1 mg/kg; for AUC(0-t): read-out: AUC0–24 h of DHC; for Cmax: read-out: Cmax of DHC; for MRT: read-out: MRT of DHC; for Tmax: read-out: Tmax of DHC
Description: The experimental protocol was approved by the University's Animal Ethics Committee. […] Rats had unlimited access to water. Standard food was given until 12 h before the experiments. Rhizoma Corydalis was processed according to Pharmacopoeia of Chinese Medicine and National Guideline of Traditional Chinese Medicinal Plants Processing. Briefly, fresh Rhizoma Corydalis was boiled in water till the pith turn light brown color. Cooked rhizome was sliced into pieces (4 mm, diameter) and dried at 25 °C. Dried slices were mixed with edible vinegar (100:20, rhizome/vinegar, w/v) or yellow wine (100:10, rhizome/wine, w/v) and the slices allowed to completely absorb the vinegar or wine. The soaked slices were then stir-fried in a metallic pan over a low flame till they were completely dry. The processed Rhizoma Corydalis was added with 70% ethanol (1:30 w/v) and sonicated for 1 h at room temperature. The extract was then concentrated to remove the ethanol residue and stored at 4 °C for further use. […] The ethanol extract of the unprocessed Rhizoma Corydalis and THP, DHC and protopine pure compound were used as the controls. Three hundred and sixty healthy rats were used in total and are divided into six groups (Group 1-6, sixty rats per group). Drugs were administrated by gastric gavage method. In order to keep the dose of THP, DHC and protopine constant in each group, the amount of ethanol extract of Rhizoma Corydalis administrated was normalized based on the dose of protopine pure compound used. The dose of THP and DHC pure compound administrated was same with that in the ethanol extract of Rhizoma Corydalis. The details were listed below. […] Rats were administrated with the 70% ethanol extract of unprocessed Rhizoma Corydalis at a dose of 17.75 g extract/kg body weight. […] Rats received the extract of vinegar-processed Rhizoma Corydalis at a dose of 15 g extract/kg rat body weight. Group 3: Rats were administrated with the extract of wine processed Rhizoma Corydalis at a dose of 15.78 g extract/kg body weight. […] Rats received THP pure compound at a dose of 6.45 mg/kg body weight. Group 6: Rats were administrated 26.10 mg of DHC pure compound/kg body weight. […] Brian tissue was further dissected into six parts: cerebrum, cerebellum, diencephalons, brain stem, hippocampus and striatum. All the tissue samples were rinsed with ice-old saline and stored at -20 °C until extraction. Tissue samples were homogenized in three volumes of ice-cold biological saline and centrifuged for 10 min at 10,000 g and 4 °C. An aliquot of the supernatant (0.5 mL) was collected. Liquid-liquid extraction was used to extract THP, DHC and protopine. One hundred microliter of 1.0 μg/mL nuciferin (internal standard) was mixed with 0.5 mL aliquots of the supernatant. […] The supernatant was evaporated completely under the nitrogen stream in a 60 °C water bath. The residue was redissolved in 100 μL of methanol. A CoMetro HPLC system (CoMetro Technology Ltd, South […], NJ, USA) with 6000 PVW detector UV-VIS detector was used. […] Ltd., Liaoning, China). Other chromatographic conditions were: column temperature, 35 °C; mobile phase, acetonitrile-0.1% phosphoric acid (pH 3.0) (30:70 v/v); flow rate, 1 mL/min; wavelength, 280 nm. Pharmacokinetic parameters were estimated by non-compartmental analysis using Equiv Test/PK (Statistical Solutions Ltd., Saugus, MA, USA). The maximum concentration (Cmax) and the time to reach the maximum concentration (Tmax) were directly obtained from the observed value. All data were represented as mean ± SD. Comparison of values between groups was performed using one-way ANOVA followed by Tukey's test for comparisons among four groups.

[1] = diencephalon, rat diencephalons

- AUC(0-t) [1]: 210 ± 50 ng·h/mL
- Cmax [1]: 80 ± 20 ng/mL
- MRT [1]: 5.3 ± 0.12 h
- Tmax [1]: 0.52 ± 0.11 h
- AUC(0-t) (rat brain stem): 410 ± 60 ng·h/mL
- Cmax (rat brain stem): 160 ± 30 ng/mL
- MRT (rat brain stem): 4.29 ± 0.15 h
- Tmax (rat brain stem): 0.5 h
- AUC(0-t) (rat cerebellum): 170 ± 30 ng·h/mL
- Cmax (rat cerebellum): 50 ± 20 ng/mL
- MRT (rat cerebellum): 5.67 ± 0.32 h
- Tmax (rat cerebellum): 0.25 h
- AUC(0-t) (rat cerebrum): 150 ± 30 ng·h/mL
- Cmax (rat cerebrum): 50 ± 10 ng/mL
- MRT (rat cerebrum): 5.39 ± 0.19 h
- Tmax (rat cerebrum): 0.25 ± 0.02 h
- AUC(0-t) (rat heart): 850 ± 120 ng·h/mL
- Cmax (rat heart): 440 ± 130 ng/mL
- MRT (rat heart): 8.72 ± 6.38 h
- Tmax (rat heart): 0.25 h
- AUC(0-t) (rat hippocampus): 270 ± 60 ng·h/mL
- Cmax (rat hippocampus): 70 ± 20 ng/mL
- MRT (rat hippocampus): 8.43 ± 0.51 h
- Tmax (rat hippocampus): 1.08 ± 0.07 h
- AUC(0-t) (rat kidney): 890 ± 90 ng·h/mL
- Cmax (rat kidney): 310 ± 20 ng/mL
- MRT (rat kidney): 4.94 ± 0.12 h
- Tmax (rat kidney): 0.25 ± 0.01 h
- AUC(0-t) (rat liver): 1570 ± 340 ng·h/mL
- Cmax (rat liver): 620 ± 180 ng/mL
- MRT (rat liver): 4.85 ± 0.1 h
- Tmax (rat liver): 0.25 h
- AUC(0-t) (rat lung): 570 ± 130 ng·h/mL
- Cmax (rat lung): 370 ± 110 ng/mL
- MRT (rat lung): 3.98 ± 0.1 h
- Tmax (rat lung): 0.25 ± 0.01 h
- AUC(0-t) (rat spleen): 830 ± 190 ng·h/mL
- Cmax (rat spleen): 360 ± 80 ng/mL
- MRT (rat spleen): 3.26 ± 0.08 h
- Tmax (rat spleen): 0.25 ± 0.1 h
- AUC(0-t) (rat striatum): 210 ± 40 ng·h/mL
- Cmax (rat striatum): 60 ± 20 ng/mL
- MRT (rat striatum): 7.27 ± 0.3 h
- Tmax (rat striatum): 0.25 ± 0.01 h
Compound: COc1cc2c(cc1OC)-c1c(C)c3ccc(OC)c(OC)c3c[n+]1CC2 [DHC, dehydrocorydaline]
